Laboratory results taken from PubChem BioAssay (NCI).
“And” between values parts separate entries of the source, which are not always exact repeats. Equal values may be shown once.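 Exposure lasted 48 hours, with cells grown in 96-well plates and compounds tested at five concentrations. GI50 = concentration required for 50% inhibition of growth. TGI is the concentration that stops growth completely.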

How the values were obtained:
Experiment in all cases: NCI tumour cell line growth inhibition, 48 h
SNB-75 CNS = tested on: SNB-75 CNS
MDA-MB-231 breast = tested on: MDA-MB-231 breast
OVCAR-3 ovarian = tested on: OVCAR-3 ovarian
SK-MEL-5 melanoma = tested on: SK-MEL-5 melanoma
KM12 colon = tested on: KM12 colon
CAKI-1 renal = tested on: CAKI-1 renal
DU-145 prostate = tested on: DU-145 prostate
OVCAR-8 ovarian = tested on: OVCAR-8 ovarian

Compound | TGI (SNB-75 CNS) | TGI (MDA-MB-231 breast) | TGI (OVCAR-3 ovarian) | TGI (SK-MEL-5 melanoma) | TGI (KM12 colon) | TGI (CAKI-1 renal) | TGI (DU-145 prostate) | TGI (OVCAR-8 ovarian) | GI50 (SNB-75 CNS) | GI50 (MDA-MB-231 breast) | GI50 (OVCAR-3 ovarian) | GI50 (SK-MEL-5 melanoma) | GI50 (KM12 colon) | GI50 (CAKI-1 renal) | GI50 (DU-145 prostate) | GI50 (OVCAR-8 ovarian)
CNC1C(O)C(OC2C(N)CC(N)C(OC3OC(CN)=CCC3N)C2O)OCC1(C)O (stereo not drawn) | > 100 µM | > 100 µM | > 100 µM | > 100 µM | > 100 µM | > 100 µM | > 100 µM | > 100 µM | – | – | – | – | – | – | – | –
CCN(CC)c1ccc(C2CC(c3cc(OC)c(OC)c(OC)c3)=NN2)cc1 (stereo not drawn) | – | 69.2 µM | > 100 µM | 3.52 µM | > 100 µM | – | 1.49 µM | > 27.5 µM | 0.372 µM | 0.513 µM | 1.88 µM | 0.706 µM | 0.372 µM | 0.346 µM | 0.305 µM | 0.43 µM
COC(=O)C(Cc1cnc[nH]1)NC(=O)CNC(=O)CCCn1c(=O)c2c3ccccc3n(C)c2n2nnc(-c3ccccc3)c12 (stereo not drawn) | > 100 µM | > 100 µM | > 100 µM | > 100 µM | > 100 µM | > 100 µM | > 100 µM | > 100 µM | > 100 µM | > 100 µM | > 100 µM | > 100 µM | > 100 µM | > 100 µM | > 100 µM | > 100 µM
C=C(C)[C@@H]1CC[C@]2(C(N)=O)CC[C@]3(C)[C@H](CC[C@@H]4[C@@]5(C)CC[C@H](O)C(C)(C)[C@@H]5CC[C@]43C)[C@@H]12 | 12.1 µM | 4.6 µM | 4.18 µM | 19.2 µM | 11.9 µM | 4.98 µM | 10.1 µM | > 100 µM | 2.74 µM | 1.97 µM | 2.07 µM | 5.22 µM | 3.2 µM | 1.98 µM | 3.21 µM | 3.12 µM
COc1cc2c3c(c4ccc(OC)c(OC)c4c2cc1OC)CN1CCC[C@@H]1C3 | 0.0947 µM | 0.156 µM | 16.6 µM | 0.324 µM | 0.965 µM | 1.1 µM | 2.9 µM | 0.264 µM | – | – | – | – | – | – | – | –
Cc1nc2ccccn2c1NC(=O)NNC(=S)Nc1ccc(Br)cc1 | 67.5 µM | 59.1 µM | 94.8 µM | > 100 µM | > 100 µM | > 100 µM | > 100 µM | > 100 µM | 26.1 µM | 22.6 µM | 38.6 µM | 47.7 µM | 35.4 µM | 29.6 µM | 45.9 µM | 63.8 µM
CC(C)CC1C(=O)N2CCC[C@H]2C2(O)O[C@](NC(=O)C3C=C4c5cccc6[nH]c(Br)c(c56)C[C@H]4N(C)C3)(C(C)C)C(=O)N12 (stereo partly drawn) | > 100 µM | > 100 µM | > 100 µM | > 100 µM | > 100 µM | > 100 µM | > 100 µM | > 100 µM | 5.55 µM | – | 6.7 µM | 4.57 µM | 6.23 µM | 2.81 µM | – | –
C[C@H]1CC[C@H]([C@@H](C)[C@H]2[C@@H](O)C[C@H]3[C@@H]4CC[C@H]5C[C@@H](O)CC[C@]5(C)[C@H]4CC[C@]23C)NC1 | – | 47.9 µM | 39.8 µM | 44 µM | 30.2 µM | 34.3 µM | 32 µM | 32.2 µM | – | – | – | – | – | – | – | –
CCOC(CCCNCCCn1c2c(c3cc(OC)c(OC)cc3c1=O)C(=O)c1cc3c(cc1-2)OCO3)OCC | 10.3 µM | 10.1 µM | 14.3 µM | 14.3 µM | 12.1 µM | 7.61 µM | – | 11.2 µM | 0.443 µM | 2.65 µM | 7.65 µM | 7.62 µM | 5.93 µM | 1.43 µM | – | 5.27 µM
Nc1ccccc1SC(CC(=O)c1ccccc1)c1ccc([N+](=O)[O-])cc1 (stereo not drawn) | 23.3 µM | 24.1 µM | 23.7 µM | 29.4 µM | 14.9 µM | 28.8 µM | 27.2 µM | 27.4 µM | 11.2 µM | 11.8 µM | 11.4 µM | 15.6 µM | 3.86 µM | 15.2 µM | 13.9 µM | 14.1 µM
O=Cc1ccc(-c2ccc(-c3nc4ccccc4[nH]3)cc2)s1 | – | > 100 µM | 54.1 µM | 41.9 µM | 69 µM | 57.2 µM | > 100 µM | 87.5 µM | – | 45.8 µM | 20.9 µM | 20.3 µM | 22.8 µM | 29.9 µM | 25.8 µM | 26.2 µM
CCNCCC1(CC)C(=O)NC(=O)NC1=O | > 100 µM | > 100 µM | > 100 µM | > 100 µM | > 100 µM | > 100 µM | > 100 µM | > 100 µM | – | – | – | – | – | – | – | –
C[C@@H](N)C1CCC(C(=O)Nc2ccncc2)CC1 (stereo partly drawn) | > 100 µM | > 100 µM | > 100 µM | > 100 µM | > 100 µM | > 100 µM | > 100 µM | > 100 µM | 5.58 µM | > 100 µM | > 100 µM | > 100 µM | > 100 µM | > 40.4 µM | > 100 µM | > 100 µM
Cc1ccc(S(=O)(=O)Oc2ccc([N+](=O)[O-])cc2[N+](=O)[O-])cc1 | 21.3 µM | 22.1 µM | 11.5 µM | 12.5 µM | 20 µM | 4.27 µM | 23.5 µM | 20.5 µM | 6.77 µM | 6.7 µM | 3.24 µM | 3.26 µM | 6.7 µM | 2.03 µM | 11.4 µM | 4.24 µM
Cc1cc(C(=O)Nc2nc3cccc(Cl)c3n2[C@@H]2CCCCN(C(=O)/C=C/CN(C)C)C2)ccn1 | 19 µM | 28.1 µM | 18.4 µM | 22.8 µM | 25.6 µM | 17.2 µM | 45.2 µM | 40.3 µM | 5.63 µM | 13 µM | 4.08 µM | 8.97 µM | 9.43 µM | 0.58 µM | 6.19 µM | 11.4 µM
COc1cc(-c2nc(NC(C)=O)sc2-c2ccnc(NCCNS(=O)(=O)c3ccccc3)n2)ccc1Cl | 7.19 µM | > 100 µM | 32.6 µM | 4.25 µM | 59.3 µM | – | > 100 µM | > 100 µM | 1.49 µM | 3.81 µM | 3.09 µM | 1.58 µM | 3.26 µM | – | 5.11 µM | 5.21 µM
O=C(c1ccc(OCCN2CCCCC2)cc1)c1c(-c2ccc(O)cc2)sc2cc(O)ccc12 | 20.6 µM and 23.6 µM | 23.2 µM and 23.6 µM | 21.7 µM and 31.5 µM | 21.4 µM and 16.9 µM | 15.3 µM and 34.3 µM | 20.6 µM and 34.1 µM | 23.9 µM and 30.2 µM | 31.5 µM and 51.3 µM | 7.55 µM and 8.56 µM | 10.4 µM and 9.02 µM | 10 µM and 14 µM | 9.51 µM and 5.32 µM | 4.49 µM and 9.32 µM | 4.65 µM and 14.4 µM | 11.7 µM and 14.9 µM | 13.4 µM and 18.2 µM
